Measurements reported in US4847387A, “Antibiotic compounds DC-92B and DC-92D” (Kyowa Hakko Kogyo Co., Ltd., priority 1986, dated 1989).
Converted amounts (≈) assume the structure as drawn. Read-outs that look alike come from different tables or passages of the source.

What was measured:
[1] = tested on: Bacillus subtilis No. 10707; assay: Minimum inhibitory concentration, agar dilution method; assay type: cell-based
Experimental: (§1) (A) Minimum Inhibitory Concentration Against Various Bacteria (MIC: μg/ml)
(§2) The antibacterial activity was evaluated by the agar dilution method using a medium (pH 7) prepared by dissolving 3 g of Bacto-Tryptone (Difco Laboratories), 3 g of meat extract, 1 g of yeast extract, 1 g of glucose and 16 g of agar in 1 liter of water.

Escherichia coli ATCC 26 = assay: as above; assay type: cell-based
Experimental: as §1, §2

[2] = tested on: Klebsiella pneumoniae ATCC 10031; assay: as above; assay type: cell-based
Experimental: as §1, §2

[3] = tested on: Salmonella typhosa ATCC 9992; assay: as above; assay type: cell-based; settings: Salmonella enterica
Experimental: as §1, §2

[4] = tested on: Shigella sonnei ATCC 9290; assay: as above; assay type: cell-based
Experimental: as §1, §2

[5] = tested on: Staphylococcus aureus ATCC 6538P; assay: as above; assay type: cell-based; settings: ATCC6538P, pH 7, read-out: Minimum Inhibitory Concentration (MIC)
Experimental: as §1, §2

in vivo = settings: mouse, ip, mice, intraperitoneal administration, read-out: acute toxicity value (LD50)
[6] = tested on: Sarcoma 180 ascites tumor; assay: Therapeutic effect against Sarcoma 180 tumor; assay type: in vivo, male ddY-strain mice; settings: ten days after implantation
Experimental: Six male ddY-strain mice each having a weight of about 20 g were used for each group as test animals, and 5×10^6 cells of Sarcoma 180 ascites tumor were implanted subcutaneously into the animals at the axilla. 0.2 ml of phosphate buffered saline (hereinafter referred to as PBS) containing DC-92B or DC-92D at various concentrations was administered once intraperitoneally 24 hours after implantation. The composition of PBS was 0.8 g/dl NaCl, 0.02 g/dl KCl, […] Na2 HPO4 and 0.02 g/dl KH2 PO4 (pH 7.2).
(§3) For comparison, 0.2 ml of PBS containing mitomycin C was intraperitoneally administered to a group of animals 24 hours after tumor implantation.

[7] = tested on: lymphocytic leukemia P388 tumor; assay: Therapeutic effect against lymphocytic leukemia P388 tumor; assay type: in vivo, male CDF1 mice
Experimental: Five male CDF1 mice each having a weight of about 22 g were used for each group as test animals, and 1×10^6 cells of lymphocytic leukemia P388 tumor were implanted intraperitoneally into the test animals. 0.2 ml of PBS containing DC-92B or DC-92D was administered once intraperitoneally 24 hours after implantation.
as §3
*Continuous administration for five days

Basicity = assay type: physicochemical
[8] = 0.31 mg/kg, once i.p. 24 h after implantation
[9] = 0.0125 mg/kg, continuous administration for five days
[10] = 0.025 mg/kg, continuous administration for five days
[11] = 0.15 mg/kg, once i.p. 24 h after implantation
[12] = methanol, ethanol, acetone, chloroform, ethyl acetate, toluene and dimethylsulfoxide
[13] = 1.563 mg/kg, once i.p. 24 h after implantation
[14] = 3.125 mg/kg, once i.p. 24 h after implantation
[15] = 6.25 mg/kg, once i.p. 24 h after implantation
[16] = 0.39 mg/kg, once i.p. 24 h after implantation
[17] = 0.78 mg/kg, once i.p. 24 h after implantation
[18] = 1.56 mg/kg, once i.p. 24 h after implantation
[19] = 3.13 mg/kg, once i.p. 24 h after implantation
[20] = 6.0 mg/kg, i.p. 24 h after implantation

With `Cc1cc2c(c3oc(C4(C)OC4C4OC4(C)C)cc(=O)c13)C(=O)c1c(O)c(C3CC(C)(N(C)C)C(O)C(C)(O)O3)cc(C3CC(N(C)C)C(O)C(C)O3)c1C2=O` (stereo not drawn) [DC-92B] the MIC ([1]; NO.10707, pH 7, read-out: Minimum Inhibitory Concentration (MIC)) was 0.15 µg/mL (≈ 0.193 µM), the MIC (Escherichia coli ATCC 26; ATCC26, pH 7, read-out: Minimum Inhibitory Concentration (MIC)) was 10 µg/mL (≈ 12.9 µM) and the MIC ([2]; ATCC10031, pH 7, read-out: Minimum Inhibitory Concentration (MIC)) was 2.5 µg/mL (≈ 3.22 µM). The MIC ([3]; pH 7, read-out: Minimum Inhibitory Concentration (MIC)) was 40 µg/mL (≈ 51.5 µM), the MIC ([4]; ATCC9290, pH 7, read-out: Minimum Inhibitory Concentration (MIC)) was 10 µg/mL (≈ 12.9 µM) and the MIC [5] was 0.04 µg/mL (≈ 0.0515 µM). For the same molecule, the LD50 (in vivo) was roughly 0.31 mg/kg, the Average tumor volume [6, 8] was 828.6 mm^3 and the “T/C (average tumor volume)” value [6, 8] was 0.39. For the same molecule, the “Increased Life Span (T/C)” value [7, 9] was 1.41, the “Survival days (mean)” value [7, 9] was 15.5 days and the “Increased Life Span (T/C)” value [7, 10] was 1.41. The “Survival days (mean)” value [7, 10] was 15.5 days, the “Increased Life Span (T/C)” value [7, 11] was 1.47 and the “Survival days (mean)” value [7, 11] was 16.2 days. The Basicity (Basicity) was “Weakly basic”, the Solubility (Solubility; [12]) was “Soluble” and the Solubility (Solubility; water and hexane) was “sparingly soluble”.
For `Cc1cc2c(c3oc(C4(C)OC4C4OC4(C)C)cc(=O)c13)C(=O)c1c(O)c(C3CC(C)(N(C)C)C(O)C(C)(O)O3)cc(C3=CC(N(C)C)C(O)C(C)O3)c1C2=O` (stereo not drawn) [DC-92D], the MIC ([1]; NO.10707, agar dilution, pH 7, read-out: Minimum Inhibitory Concentration (MIC)) was 3 µg/mL (≈ 3.87 µM), the MIC (Escherichia coli ATCC 26; ATCC26, agar dilution, pH 7, read-out: Minimum Inhibitory Concentration (MIC)) was 100 µg/mL (≈ 129 µM) and the MIC ([2]; ATCC10031, agar dilution, pH 7, read-out: Minimum Inhibitory Concentration (MIC)) was 25 µg/mL (≈ 32.3 µM). The MIC ([3]; agar dilution, pH 7, read-out: Minimum Inhibitory Concentration (MIC)) was 100 µg/mL (≈ 129 µM), the MIC ([4]; ATCC9290, agar dilution, pH 7, read-out: Minimum Inhibitory Concentration (MIC)) was 100 µg/mL (≈ 129 µM) and the MIC ([5]; agar dilution) was 1.5 µg/mL (≈ 1.94 µM). For the same molecule, the LD50 (in vivo) was roughly 5.6 mg/kg, the Average tumor volume [6, 13] was 1444.8 mm^3 and the “T/C (average tumor volume)” value [6, 13] was 0.68. For the same molecule, the Average tumor volume [6, 14] was 679.9 mm^3, the “T/C (average tumor volume)” value [6, 14] was 0.32 and the Average tumor volume [6, 15] was 764.9 mm^3. For the same molecule, the “T/C (average tumor volume)” value [6, 15] was 0.36, the “Increased Life Span (T/C)” value [7, 16] was 1.04 and the “Survival days (mean)” value [7, 16] was 11.4 days. For the same molecule, the “Survival days (mean)” value ([7]; 0.75 mg/kg, 120 h) was 17.4 days, the “Increased Life Span (T/C)” value ([7]; 0.75 mg/kg, continuous administration for five days) was 1.58 and the “Increased Life Span (T/C)” value [7, 17] was 1.17. For the same molecule, the “Survival days (mean)” value [7, 17] was 12.9 days, the “Increased Life Span (T/C)” value [7, 18] was 1.15 and the “Survival days (mean)” value [7, 18] was 12.7 days. For the same molecule, the “Increased Life Span (T/C)” value [7, 19] was 0.69, the “Survival days (mean)” value [7, 19] was 7.6 days and the Basicity (Basicity) was “Weakly basic”. For the same molecule, the Solubility (Solubility; [12]) was “Soluble” and the Solubility (Solubility; water and hexane) was “sparingly soluble”.
With `CO[C@@]12[C@H](COC(N)=O)C3=C(C(=O)C(C)=C(N)C3=O)N1C[C@@H]1N[C@@H]12` [Mitomycin C, reference compound] the Average tumor volume [6, 20] was 743.8 mm^3, the “T/C (average tumor volume)” value [6, 20] was 0.35 and the “Increased Life Span (T/C)” value [7, 20] was 1.63. The “Survival days (mean)” value [7, 20] was 17.9 days.
